We go through two compounds from ChEMBL document CHEMBL5303766, “Data for DCP probe FHT-2344” (2022).

SMILES strings stand for the structures. Active and inactive are the calls of the source. The calls are words filed in the database; no cut-off is given here.

In test [1] the target is SWI/SNF-related matrix-associated actin-dependent regulator of chromatin subfamily A member 2 (Homo sapiens, UniProt P51531). The test is described as follows: Luciferase reporter assay: SMARCA2 transcriptional activity in a SMARCA4-mutant cell line. The test is classed as functional.
The target of test [2] is T1, Serine/threonine-protein kinase 3 (Homo sapiens) (UniProt Q13188).
T1 sequence (whole entry): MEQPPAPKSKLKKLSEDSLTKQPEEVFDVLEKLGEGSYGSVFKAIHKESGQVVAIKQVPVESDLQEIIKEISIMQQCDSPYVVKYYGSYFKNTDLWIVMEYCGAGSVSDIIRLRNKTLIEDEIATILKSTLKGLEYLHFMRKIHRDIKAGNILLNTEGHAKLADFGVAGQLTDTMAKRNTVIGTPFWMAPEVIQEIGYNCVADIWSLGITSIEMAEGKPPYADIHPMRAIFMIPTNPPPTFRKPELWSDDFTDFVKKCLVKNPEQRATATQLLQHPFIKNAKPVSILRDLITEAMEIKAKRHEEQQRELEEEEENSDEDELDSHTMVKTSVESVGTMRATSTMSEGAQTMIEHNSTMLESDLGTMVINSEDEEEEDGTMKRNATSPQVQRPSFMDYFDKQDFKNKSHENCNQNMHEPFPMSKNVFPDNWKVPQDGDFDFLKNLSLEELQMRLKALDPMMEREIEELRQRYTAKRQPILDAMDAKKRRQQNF
Nature of the test: STK3 SGC Tm panel (DSF). The settings on record: for ΔTm: Compound concentration 10.0 uM.

The target in test [3] is T2, Transcription intermediary factor 1-alpha (Homo sapiens) (UniProt O15164).
T2 sequence (whole entry): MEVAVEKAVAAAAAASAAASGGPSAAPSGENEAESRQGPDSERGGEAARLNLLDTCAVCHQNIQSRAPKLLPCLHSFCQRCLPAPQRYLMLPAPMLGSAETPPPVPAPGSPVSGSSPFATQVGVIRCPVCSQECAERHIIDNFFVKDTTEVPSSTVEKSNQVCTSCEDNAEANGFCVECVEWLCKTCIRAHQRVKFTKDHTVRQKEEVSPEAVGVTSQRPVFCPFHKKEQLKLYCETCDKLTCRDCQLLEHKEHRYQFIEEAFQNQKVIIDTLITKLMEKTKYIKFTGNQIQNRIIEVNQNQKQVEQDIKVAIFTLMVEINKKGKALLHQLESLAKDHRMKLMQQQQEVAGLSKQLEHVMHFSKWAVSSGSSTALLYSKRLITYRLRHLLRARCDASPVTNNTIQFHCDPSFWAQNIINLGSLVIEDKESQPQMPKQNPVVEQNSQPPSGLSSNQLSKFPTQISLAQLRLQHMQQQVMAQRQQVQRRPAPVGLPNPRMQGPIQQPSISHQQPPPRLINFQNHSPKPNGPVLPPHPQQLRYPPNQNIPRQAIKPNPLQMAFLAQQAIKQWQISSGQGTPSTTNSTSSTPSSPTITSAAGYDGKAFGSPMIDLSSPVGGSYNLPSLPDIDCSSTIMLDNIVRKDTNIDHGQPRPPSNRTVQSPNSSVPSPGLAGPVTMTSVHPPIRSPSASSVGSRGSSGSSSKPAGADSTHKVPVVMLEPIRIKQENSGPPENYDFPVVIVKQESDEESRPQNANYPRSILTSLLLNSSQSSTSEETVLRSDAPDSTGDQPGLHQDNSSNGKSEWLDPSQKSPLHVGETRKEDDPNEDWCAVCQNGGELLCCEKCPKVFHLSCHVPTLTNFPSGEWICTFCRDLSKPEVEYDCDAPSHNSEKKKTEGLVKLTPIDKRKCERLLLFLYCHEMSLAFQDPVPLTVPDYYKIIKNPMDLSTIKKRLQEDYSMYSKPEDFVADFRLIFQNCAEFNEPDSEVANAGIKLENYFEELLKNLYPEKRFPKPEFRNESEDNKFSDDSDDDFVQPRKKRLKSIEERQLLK
Nature of the test: TIF1 SGC Tm panel (DSF). The settings on record: for ΔTm: Compound concentration 10.0 uM.

The target of test [4] is T3, Serine/threonine-protein kinase ULK3 (Homo sapiens) (UniProt Q6PHR2).
T3 sequence (whole entry): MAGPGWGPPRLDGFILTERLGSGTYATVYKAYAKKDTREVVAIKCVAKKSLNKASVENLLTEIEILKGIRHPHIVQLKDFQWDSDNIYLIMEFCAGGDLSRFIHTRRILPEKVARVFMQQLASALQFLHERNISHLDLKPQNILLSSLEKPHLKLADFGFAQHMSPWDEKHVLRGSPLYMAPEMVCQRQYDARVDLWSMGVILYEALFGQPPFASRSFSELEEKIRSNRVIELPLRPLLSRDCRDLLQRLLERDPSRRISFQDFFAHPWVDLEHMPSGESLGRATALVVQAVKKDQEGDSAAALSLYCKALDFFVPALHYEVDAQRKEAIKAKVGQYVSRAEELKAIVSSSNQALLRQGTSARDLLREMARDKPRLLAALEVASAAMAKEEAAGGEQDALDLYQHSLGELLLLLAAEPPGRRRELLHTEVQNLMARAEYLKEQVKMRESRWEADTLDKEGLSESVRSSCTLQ
The test is described as follows: ULK3 SGC Tm panel (DSF). The settings on record: for ΔTm: Compound concentration 10.0 uM.

Test [5] deals with Ephrin type-A receptor 4 (Homo sapiens) (UniProt P54764). Nature of the test: EPHA4 SGC Tm panel (DSF). The settings on record: for ΔTm: Compound concentration 10.0 uM.
Test [6] addresses Homeodomain-interacting protein kinase 2 (Homo sapiens) (UniProt Q9H2X6). The test is described as follows: HIPK2 SGC Tm panel (DSF). The following applies: for ΔTm: Compound concentration 10.0 uM.

Ephrin type-A receptor 4 (Homo sapiens), sequence (P54764 whole entry): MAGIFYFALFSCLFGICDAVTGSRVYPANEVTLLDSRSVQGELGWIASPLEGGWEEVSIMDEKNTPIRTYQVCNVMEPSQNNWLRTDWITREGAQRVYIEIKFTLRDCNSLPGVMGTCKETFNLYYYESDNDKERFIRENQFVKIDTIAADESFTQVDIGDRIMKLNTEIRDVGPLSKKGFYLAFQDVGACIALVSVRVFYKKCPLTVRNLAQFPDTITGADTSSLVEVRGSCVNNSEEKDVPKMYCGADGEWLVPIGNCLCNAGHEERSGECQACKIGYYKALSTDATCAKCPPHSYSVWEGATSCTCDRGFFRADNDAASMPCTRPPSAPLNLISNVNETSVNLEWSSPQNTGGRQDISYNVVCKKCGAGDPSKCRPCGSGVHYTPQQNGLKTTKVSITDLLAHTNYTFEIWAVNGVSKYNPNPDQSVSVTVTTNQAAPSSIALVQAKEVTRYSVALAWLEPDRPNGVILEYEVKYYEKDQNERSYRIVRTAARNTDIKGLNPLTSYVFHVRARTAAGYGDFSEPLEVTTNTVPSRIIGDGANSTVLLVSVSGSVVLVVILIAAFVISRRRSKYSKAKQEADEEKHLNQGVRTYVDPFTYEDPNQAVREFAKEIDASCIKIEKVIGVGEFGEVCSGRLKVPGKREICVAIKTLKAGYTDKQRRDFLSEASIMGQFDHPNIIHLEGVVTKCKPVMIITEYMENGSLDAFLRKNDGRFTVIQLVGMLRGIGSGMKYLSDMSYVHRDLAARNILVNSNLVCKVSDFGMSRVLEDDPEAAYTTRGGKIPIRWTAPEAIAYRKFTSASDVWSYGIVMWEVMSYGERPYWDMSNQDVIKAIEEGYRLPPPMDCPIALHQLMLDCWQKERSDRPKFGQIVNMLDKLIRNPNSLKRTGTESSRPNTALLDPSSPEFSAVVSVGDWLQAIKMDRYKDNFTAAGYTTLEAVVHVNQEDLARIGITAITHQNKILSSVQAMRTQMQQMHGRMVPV
Homeodomain-interacting protein kinase 2 (Homo sapiens), sequence (Q9H2X6 whole entry, looked up): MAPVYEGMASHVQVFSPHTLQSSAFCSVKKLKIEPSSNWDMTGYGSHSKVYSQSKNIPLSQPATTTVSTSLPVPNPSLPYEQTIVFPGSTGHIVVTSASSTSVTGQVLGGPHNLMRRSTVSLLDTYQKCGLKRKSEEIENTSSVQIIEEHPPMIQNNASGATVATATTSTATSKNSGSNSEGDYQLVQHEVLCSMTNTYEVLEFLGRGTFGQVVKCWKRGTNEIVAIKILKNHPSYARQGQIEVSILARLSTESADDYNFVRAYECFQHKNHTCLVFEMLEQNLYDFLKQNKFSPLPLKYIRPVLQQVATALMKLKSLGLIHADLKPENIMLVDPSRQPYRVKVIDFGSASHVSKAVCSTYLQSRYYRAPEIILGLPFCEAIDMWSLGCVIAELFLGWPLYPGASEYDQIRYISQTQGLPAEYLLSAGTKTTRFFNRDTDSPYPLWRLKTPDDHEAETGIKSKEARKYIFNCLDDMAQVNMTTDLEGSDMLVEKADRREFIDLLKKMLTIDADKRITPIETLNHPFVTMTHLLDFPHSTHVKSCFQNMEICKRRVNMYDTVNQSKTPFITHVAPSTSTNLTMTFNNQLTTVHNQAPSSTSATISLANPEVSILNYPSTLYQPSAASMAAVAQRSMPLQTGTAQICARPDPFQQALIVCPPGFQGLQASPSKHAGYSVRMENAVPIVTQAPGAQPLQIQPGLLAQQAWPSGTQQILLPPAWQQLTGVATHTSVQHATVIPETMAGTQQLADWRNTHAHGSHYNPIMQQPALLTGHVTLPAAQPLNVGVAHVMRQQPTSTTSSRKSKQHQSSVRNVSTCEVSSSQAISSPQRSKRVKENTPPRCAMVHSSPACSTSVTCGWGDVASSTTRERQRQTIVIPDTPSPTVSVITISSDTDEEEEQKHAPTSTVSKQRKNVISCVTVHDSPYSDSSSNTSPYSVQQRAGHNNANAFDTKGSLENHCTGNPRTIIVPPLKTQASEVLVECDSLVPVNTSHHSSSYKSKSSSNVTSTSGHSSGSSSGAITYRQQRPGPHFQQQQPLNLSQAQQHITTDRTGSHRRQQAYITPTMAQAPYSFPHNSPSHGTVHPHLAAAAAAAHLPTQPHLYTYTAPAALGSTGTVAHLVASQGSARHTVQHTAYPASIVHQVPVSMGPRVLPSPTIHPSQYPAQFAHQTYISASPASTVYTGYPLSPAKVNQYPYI
SWI/SNF-related matrix-associated actin-dependent regulator of chromatin subfamily A member 2, sequence (P51531 whole entry, looked up, change not shown): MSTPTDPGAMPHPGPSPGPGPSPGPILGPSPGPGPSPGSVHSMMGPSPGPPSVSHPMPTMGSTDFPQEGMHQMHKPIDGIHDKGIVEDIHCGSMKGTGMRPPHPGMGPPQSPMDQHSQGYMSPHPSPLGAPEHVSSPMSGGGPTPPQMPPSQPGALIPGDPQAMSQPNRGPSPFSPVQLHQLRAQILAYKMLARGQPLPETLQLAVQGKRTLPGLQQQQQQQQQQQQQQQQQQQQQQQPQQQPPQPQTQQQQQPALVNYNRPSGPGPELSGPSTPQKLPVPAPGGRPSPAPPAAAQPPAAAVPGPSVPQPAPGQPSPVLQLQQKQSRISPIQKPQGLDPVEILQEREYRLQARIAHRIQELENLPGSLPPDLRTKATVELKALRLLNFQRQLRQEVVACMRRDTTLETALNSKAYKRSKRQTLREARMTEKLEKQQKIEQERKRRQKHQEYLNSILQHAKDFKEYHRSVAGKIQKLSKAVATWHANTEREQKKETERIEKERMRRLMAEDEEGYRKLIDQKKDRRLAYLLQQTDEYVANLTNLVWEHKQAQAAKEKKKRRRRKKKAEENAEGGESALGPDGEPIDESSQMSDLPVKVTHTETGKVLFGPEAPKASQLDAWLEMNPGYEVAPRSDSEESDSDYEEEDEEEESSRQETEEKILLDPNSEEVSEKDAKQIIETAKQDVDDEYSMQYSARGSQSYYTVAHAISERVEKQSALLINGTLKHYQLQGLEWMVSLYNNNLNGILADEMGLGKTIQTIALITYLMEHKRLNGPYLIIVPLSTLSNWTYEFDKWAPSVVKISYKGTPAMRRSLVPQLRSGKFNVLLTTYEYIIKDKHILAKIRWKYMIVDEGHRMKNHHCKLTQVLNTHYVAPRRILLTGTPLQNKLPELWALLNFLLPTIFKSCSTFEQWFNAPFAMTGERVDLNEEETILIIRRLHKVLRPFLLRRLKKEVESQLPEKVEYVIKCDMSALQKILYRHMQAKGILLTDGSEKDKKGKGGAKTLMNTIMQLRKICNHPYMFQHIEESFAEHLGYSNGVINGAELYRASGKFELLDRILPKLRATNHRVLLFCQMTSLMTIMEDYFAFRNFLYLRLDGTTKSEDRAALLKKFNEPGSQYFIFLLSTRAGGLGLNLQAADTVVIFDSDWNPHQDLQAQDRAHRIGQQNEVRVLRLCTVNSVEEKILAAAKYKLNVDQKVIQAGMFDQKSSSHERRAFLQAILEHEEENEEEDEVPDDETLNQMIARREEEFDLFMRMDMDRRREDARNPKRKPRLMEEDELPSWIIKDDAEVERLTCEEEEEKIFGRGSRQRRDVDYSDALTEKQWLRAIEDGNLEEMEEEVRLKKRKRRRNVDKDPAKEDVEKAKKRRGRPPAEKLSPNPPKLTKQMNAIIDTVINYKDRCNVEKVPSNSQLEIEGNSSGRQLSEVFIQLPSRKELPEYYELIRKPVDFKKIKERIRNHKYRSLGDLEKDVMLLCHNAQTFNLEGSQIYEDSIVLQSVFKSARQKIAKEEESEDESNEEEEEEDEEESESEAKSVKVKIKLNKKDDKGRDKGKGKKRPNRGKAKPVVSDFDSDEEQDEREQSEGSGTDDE

Turning to `COC[C@H](NC(=O)c1ccn(S(C)(=O)=O)c1)C(=O)Nc1nc(-c2cccc(-c3ccn(C)n3)c2)cs1`, the IC50 (usually the concentration at which inhibition is half-maximal) in test [1] is 0.0298 µM (active). Further, the delta Tm Staurosporine positive control in test [2] came to 15.5; in test [3], 2.51; in test [4], 18.2; in test [5] it was 6.89; in test [6], 6.38. Also, the ΔTm was 1.34 in test [2]; 1.43 in test [3]; 0.301 in test [4]; 1.06 in test [5]; 0.234 in test [6].
For the compound `C[C@H](NC(=O)c1cn(C2(C#N)CC2)cn1)C(=O)Nc1nc(-c2cccc(-c3ccn(C)n3)c2)cs1`, the 50% inhibitory concentration (IC50) in test [1] was 4.35 µM (not active). Also, the delta Tm Staurosporine positive control was found to be 15.5 in test [2]; 2.51 in test [3]; 18.2 in test [4]; 6.89 in test [5]; 6.38 in test [6]. The ΔTm in test [2] is 0.324; in test [3], 1.18; in test [4] it was 0.155; in test [5], 1.22; in test [6], 0.207.
